Measured values reported in patent US9763980B2, “Combined chemical modification of sphingosine-1-phosphate (S1P) and CXCR4 signalling pathways for hematopoietic stem cell (HSC) mobilization and engraftment” (Children's Medical Center Corporation, priority 2011, dated 2017).
Entries after “also recorded” stand apart in the source; their conditions may differ.

Tests used:
[1] = tested on: CHT hematopoiesis (HSPC markers cmyb and runx1 in the CHT); experiment: Zebrafish embryo chemical treatment and dose matrices, whole mount in situ hybridization of cmyb/runx1 in the CHT; format: in vivo; conditions: for cmyb/runx1 expression in the CHT (CHT hematopoiesis): agent alone, treatment from 48 hpf, 72 hpf embryos; for rescue of the effect of 25 μM W146 on cmyb/runx1 expression: addition of agent to W146; for Experimental data: concentration of S1PR1 modulating agent in the combination effective at increasing HSC engraftment / Experimental data: concentration of S1PR1 modulating agent in the combination effective at increasing HSC mobilization: combination with AMD3100; for mobilization of HSC from the bone marrow in vivo: combination with AMD3100 in specific ratios
Experimental: Transgenic zebrafish embryos were intercrossed and selected using epifluorescence (e.g. Runx1+23:EGFP, cmyb:EGFP^4, cd41:EGFP^2, kdrl:DsRed2^31). Live imaging was performed using a spinning disk confocal microscope with an incubated chamber. Zebrafish embryos were mounted and imaged as previously described. Live mouse fetal liver explants were prepared as previously described for aorta-gonad-mesonephros tissue^10. Image processing was done primarily with Fluorender^32 and ImageJ, which included the MTrackJ plugin^33 for manual cell tracking. For chemical screening and dose matrices, stage-matched AB embryos were dechorionated and arrayed 8-10/well in 96-well mesh-bottomed plates (Millipore). Embryos were treated from 48-72 hpf by placement directly in 96-well receiver plates containing small molecules diluted in E3 media+1% DMSO. Embryos were checked for circulation before fixation. Whole mount in situ hybridization was performed as previously described^34, with the addition of 0.2% glutaraldehyde to 4% formaldehyde at the post-fixation step. […] Lineage tracing was performed by injecting cd41:EGFP positive embryos with caged fluorescein conjugated to dextran (MW 10000). Embryos were uncaged in the DA at 28 hpf with a UV laser. Embryos were raised to 46 hpf in E3 media or E3+S1PR1 antagonist W146 (10 μM), then fixed for antibody staining to detect double positive cd41:EGFP and uncaged FITC HSPCs. Receptor fusion cDNAs (25 pg) were injected into one-cell embryos with Tol2 RNA (15 pg). Flow cytometry was performed using a LSR II and cells were sorted using a FACSAria (BD Biosciences). Flow cytometry data was analyzed using FACSDiva and FlowJo software.
Having followed newly born aortic HSPCs to the intermediate tissue, the inventors assessed the signaling pathways involved in embryonic migration. The inventors designed a chemical genetic screen to introduce small molecules to the zebrafish embryo from the peak window of HSPC migration to the CHT (48-72 hpf).

HSPCs in the CHT [2] = experiment: Time-lapse live imaging and cell tracking in the CHT (Runx1+23:EGFP; kdrl:DsRed2); format: in vivo, zebrafish
Experimental: (§1) Transgenic zebrafish embryos were intercrossed and selected using epifluorescence (e.g. Runx1+23:EGFP, cmyb:EGFP^4, cd41:EGFP^2, kdrl:DsRed2^31). Live imaging was performed using a spinning disk confocal microscope with an incubated chamber. Zebrafish embryos were mounted and imaged as previously described. Live mouse fetal liver explants were prepared as previously described for aorta-gonad-mesonephros tissue^10. Image processing was done primarily with Fluorender^32 and ImageJ, which included the MTrackJ plugin^33 for manual cell tracking. For chemical screening and dose matrices, stage-matched AB embryos were dechorionated and arrayed 8-10/well in 96-well mesh-bottomed plates (Millipore). Embryos were treated from 48-72 hpf by placement directly in 96-well receiver plates containing small molecules diluted in E3 media+1% DMSO. Embryos were checked for circulation before fixation. Whole mount in situ hybridization was performed as previously described^34, with the addition of 0.2% glutaraldehyde to 4% formaldehyde at the post-fixation step. Morpholino (s1pr1/edg1 ATG-MO^23 obtained from Gene Tools, LLC) was injected into one-cell Tu or cmyb:EGFP; kdrl:DsRed2 transgenic embryos at a 1 ng dose (higher doses stop circulation). Lineage tracing was performed by injecting cd41:EGFP positive embryos with caged fluorescein conjugated to dextran (MW 10000). Embryos were uncaged in the DA at 28 hpf with a UV laser. Embryos were raised to 46 hpf in E3 media or E3+S1PR1 antagonist W146 (10 μM), then fixed for antibody staining to detect double positive cd41:EGFP and uncaged FITC HSPCs. Receptor fusion cDNAs (25 pg) were injected into one-cell embryos with Tol2 RNA (15 pg). Flow cytometry was performed using a LSR II and cells were sorted using a FACSAria (BD Biosciences). Flow cytometry data was analyzed using FACSDiva and FlowJo software.
Time-lapse live imaging. Staged transgenic zebrafish embryos were selected and mounted for imaging in 1% LMP agarose with E3 media and tricaine as described. Pregnant C57/BL6 mice were dissected at E11 (vaginal plug observation was E0). Embryos were removed from the uterus in PBS with 10% FCS and penicillin-streptomycin. Embryos were staged as E11 by counting ˜42 somite pairs. Fetal livers were removed from the embryo and treated as described by Boisset and colleagues (“protocol b”)^10. Zebrafish embryos and fetal liver explants were imaged in MatTek glass bottom dishes (No. 1.5 cover slip). […] Quantification of 12 hours of CHT tracking data per time-lapse movie allowed us to define engrafted cells as stationary (i.e. a speed of <0.31 microns/minute) and resident in the CHT for at least 3 hours, otherwise they were scored as migratory and transient. […]

HSPCs in the CHT [3] = experiment: Lineage tracing of HSPCs from DA to CHT (cd41:EGFP and uncaged FITC); format: in vivo, zebrafish; conditions: W146 10 μM, versus control
Experimental: as §1, with “Lineage tracing was performed by injecting cd41:EGFP positive embryos with caged fluorescein conjugated to dextran (MW 10000). Embryos were uncaged in the DA at 28 hpf with a UV laser. Embryos were raised to 46 hpf in E3 media or E3+S1PR1 antagonist W146 (10 μM), then fixed for antibody staining to detect double positive cd41:EGFP and uncaged FITC HSPCs. Receptor fusion cDNAs (25 pg) were injected into one-cell embryos with Tol2 RNA (15 pg). Flow cytometry was performed using a LSR II and cells were sorted using a FACSAria (BD Biosciences).” left out, “software. […]” for “software.”

autoimmune myocarditis = conditions: rat model for autoimmune myocarditis; cited from earlier work
[4] = molecular target: T1, endothelial S1P1 receptors (Mus musculus, UniProt O08530); conditions: type I diabetic vascular endothelium; cited from earlier work
T1 construct: host or cells: vascular endothelium (as cited)

[5] = molecular target: T1, endothelial S1P1 receptors; conditions: cited from earlier work
[6] = in vivo; cited from earlier work
[7] = addition of AUY954, 54 hpf embryos
[8] = dose matrices, agent combined with AMD3100
[9] = W146 10 μM, 38-50 hpf, versus control

T1 sequence (O08530 whole entry): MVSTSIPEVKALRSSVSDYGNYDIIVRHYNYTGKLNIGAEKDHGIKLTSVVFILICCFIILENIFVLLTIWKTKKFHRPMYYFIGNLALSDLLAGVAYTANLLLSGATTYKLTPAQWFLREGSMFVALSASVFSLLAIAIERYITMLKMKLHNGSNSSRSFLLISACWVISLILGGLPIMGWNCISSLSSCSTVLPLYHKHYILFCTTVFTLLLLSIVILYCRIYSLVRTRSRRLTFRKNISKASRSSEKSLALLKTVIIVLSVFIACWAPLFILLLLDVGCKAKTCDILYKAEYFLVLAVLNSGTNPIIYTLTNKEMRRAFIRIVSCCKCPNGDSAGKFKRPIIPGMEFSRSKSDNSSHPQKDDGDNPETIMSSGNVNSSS

In the case of `c1cc(CN2CCCNCCNCCCNCC2)ccc1CN1CCCNCCNCCCNCC1` [AMD3100, 1,1′-[1,4-Phenylenebis(methylene)]bis[1,4,8,11-tetraazacyclotetradecane]], the “cmyb/runx1 expression in the CHT” value ([1]; AMD3100 25 μM, 54 hpf embryos) is reported as “greatly decreases”, the “cmyb/runx1 expression in the CHT (CHT hematopoiesis)” value [1] is reported as “dose-dependently reduces; also recorded: decreases CHT hematopoiesis” and the CHT hematopoiesis ([1]; each agent alone at the doses of the effective FTY720/AMD3100 combination) is reported as “no effect”.
In the case of `O=C(O)CCNCc1ccc2sc(-c3ccc(-c4ccccc4)c(C(F)(F)F)c3)cc2c1` [AUY954, 3-[[2-[4-phenyl-3-(trifluoromethyl)phenyl]-1-benzothiophen-5-yl]methylamino]propanoic acid], the “CHT score (greatest engraftment in dose matrix)” value ([1]; 10 μM AMD3100 and 12.5 μM AUY945) is reported as “+2”, the “rescue of the cmyb/runx1 decrease caused by 25 μM AMD3100” value [1, 7] is reported as “partially rescued” and the “rescue of the effect of 25 μM SKI-2” value [1, 7] is reported as “rescued”. The “rescue of the effect of 25 μM W146 on cmyb/runx1 expression” value ([1]; 54 hpf embryos) was “rescued”, the “Experimental data: concentration of S1PR1 modulating agent in the combination effective at increasing HSC engraftment” value [1] was 12.5 µM and the CHT hematopoiesis [1, 8] was “synergistic increases”.
For `CCCCCCCCCCCCC/C=C/[C@@H](O)[C@@H](N)COP(=O)(O)O` [Compound S1P, sphingosine-1-phosphate], the “rescue of the effect of 25 μM W146 on cmyb/runx1 expression” value ([1]; 54 hpf embryos) was “rescued”, the “cmyb/runx1 expression in the CHT (CHT hematopoiesis)” value [1] was “altered the migration pattern of HSPCs; also recorded: alters cmyb/runx1 expression pattern” and the CHT hematopoiesis [1, 8] was “synergistic increases”.
With `CCCCCCc1cccc(NC(=O)[C@H](N)CCP(=O)(O)O)c1` [Compound W146, (R)-3-Amino-4-(3-hexylphenylamino)-4-oxobutylphosphonic acid] the “CHT score in dose matrix” value ([1]; 5 μM AMD3100 and 10 μM W146) was “greatest CHT score”, the “cmyb/runx1 expression in the CHT” value ([1]; W146 25 μM, 54 hpf embryos) was “decreases” and the “Experimental data: concentration of S1PR1 modulating agent in the combination effective at increasing HSC engraftment” value [1] was 10 µM. For the same compound, the “Experimental data: concentration of S1PR1 modulating agent in the combination effective at increasing HSC mobilization” value [1] was 5 μM W146, the “mobilization of HSC from the bone marrow in vivo” value [1] was “improves mobilization” and the “number of engrafted cells” value (HSPCs in the CHT [2]; [9]) was “decreased”. For the same compound, the “percentage of migratory cells” value (HSPCs in the CHT [2]; [9]) was “increased”, the “tracked cells in the CHT” value (HSPCs in the CHT [2]; [9]) was “increased” and the CHT colonization (HSPCs in the CHT [2]; embryos in the antagonist during imaging) was “interferes with CHT colonization”. The “number of lineage traced HSPCs in the CHT” value (HSPCs in the CHT [3]; embryos raised to 46 hpf) was “increased” and the “morphology of lineage traced HSPCs in the CHT” value (HSPCs in the CHT [3]) was “morphology that differed from the control; also recorded: morphological changes”.
For `NC(CO)(CO)CCc1ccc(Sc2cccc(OCc3ccccc3)c2)cc1Cl` [KRP-203], the therapeutic efficacy (autoimmune myocarditis) is listed as “therapeutic efficacy”.
For `FC(F)(F)c1cccc(-c2noc(-c3cc(-c4ccccc4)c(C(F)(F)F)s3)n2)c1` [SEW2871, 5-[4-phenyl-5-(trifluoromethyl)-2-thienyl]-3-[3-(trifluoromethyl)phenyl]-1,2,4-oxadiazole], the proinflammatory monocyte/endothelial interactions [4] is given as “prevents”, the “CHT score (greatest engraftment in dose matrix)” value ([1]; 10 μM AMD3100 and 10 μM SEW2871) is given as “+2” and the “Experimental data: concentration of S1PR1 modulating agent in the combination effective at increasing HSC engraftment” value [1] is given as 10 µM. The “Experimental data: concentration of S1PR1 modulating agent in the combination effective at increasing HSC mobilization” value [1] was 15 µM, the “mobilization of HSC from the bone marrow in vivo” value [1] was “improves mobilization” and the CHT hematopoiesis [1, 8] was “synergistic increases”. For the same compound, the “protection of the vasculature against TNFα-mediated monocyte/endothelial interactions” value [5] was “protects” and the bradycardia [6] was “does not induce bradycardia”.
With `Oc1ccc(Nc2nc(-c3ccc(Cl)cc3)cs2)cc1` [SKI-2] the “effect of SKI-2 in CHT hematopoiesis assay” value ([1]; SKI-2 25 μM, 54 hpf embryos) was “depleting endogenous levels of S1P” and the “effect on improving engraftment (CHT)” value ([1]; SKI-2 alone) was “little effect”.
